Here are results for three molecules from patent US20200069607A1, “MOUTHWASH FOR TREATING ORAL CANCERS” (THE BOARD OF REGENTS OF THE UNIVERSITY OF TEXAS SYSTEM, priority 2016, published 2020).

One assay deals with Ca127 cells. Description: Calcium imaging of Ca127 cells. In kind it is cell-based. The note with it: for effect of inhibitor pre-treatment on calcium influx in response to thymol: Ca127 cells, pre-treatment followed by thymol 400 μM. From the text: (§1) FIGS. 6A-D: Calcium imaging of CHO cells overexpressing TRPA1 (FIG. 6A) or TRPV1 (FIG. 6B). Calcium imaging of cancer cell lines, Ca127 (FIG. 6C) and HeLa (FIG. 6D).
(§2) […]. […] […].

In assay [1] the test system is HeLa cells. In words: Calcium imaging of HeLa cells. It counts as cell-based. To be noted: negative for TRPA1, thymol treatment.
Text: as §1, §2

In the next assay the test system is Ca127. Description: Clonogenic assay, Ca127 cells.
The target in another assay is T1, TRPV1 (Homo sapiens, UniProt Q8NER1).
T1 construct: expressed in transfected cells; host or cells: CHO cells
T1 sequence (Q8NER1 whole entry, species assumed): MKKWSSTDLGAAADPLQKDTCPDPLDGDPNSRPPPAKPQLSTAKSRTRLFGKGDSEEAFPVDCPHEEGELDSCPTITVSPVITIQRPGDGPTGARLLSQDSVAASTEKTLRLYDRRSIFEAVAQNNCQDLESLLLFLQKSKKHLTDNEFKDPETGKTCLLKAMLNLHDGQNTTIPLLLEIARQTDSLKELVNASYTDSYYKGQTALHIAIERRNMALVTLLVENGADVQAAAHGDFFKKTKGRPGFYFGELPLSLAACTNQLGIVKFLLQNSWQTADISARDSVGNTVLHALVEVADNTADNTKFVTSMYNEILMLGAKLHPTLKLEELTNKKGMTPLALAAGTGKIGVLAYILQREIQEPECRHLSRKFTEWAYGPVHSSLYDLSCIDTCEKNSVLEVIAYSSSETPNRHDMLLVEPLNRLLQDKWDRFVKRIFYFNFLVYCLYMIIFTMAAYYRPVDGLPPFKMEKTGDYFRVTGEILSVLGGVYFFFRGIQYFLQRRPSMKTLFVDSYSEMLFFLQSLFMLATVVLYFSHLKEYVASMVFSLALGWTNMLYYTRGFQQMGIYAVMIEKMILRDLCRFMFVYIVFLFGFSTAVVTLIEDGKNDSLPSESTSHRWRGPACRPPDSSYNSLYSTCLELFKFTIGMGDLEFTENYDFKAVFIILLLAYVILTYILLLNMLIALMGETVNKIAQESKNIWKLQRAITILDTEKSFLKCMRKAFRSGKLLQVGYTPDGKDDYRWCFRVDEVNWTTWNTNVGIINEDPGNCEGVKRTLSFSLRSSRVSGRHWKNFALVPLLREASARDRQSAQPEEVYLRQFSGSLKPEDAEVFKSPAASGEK
In words: Calcium imaging of CHO cells overexpressing TRPV1. In kind it is cell-based.
Text: as §1

Assay [2] relates to HeLa (Cervical cancer) cells. In words: Cell viability / proliferation assay, HeLa cells. The note with it: Homo sapiens, 48 h, read-out: IC50, anti-proliferative effect.
Assay [3] has as its system HeLa cells. In words: Clonogenic assay, HeLa cells.
Text: FIGS. 3A-D: Clonogenic Assay of Ca127 (FIGS. 3A and 3C) and HeLa cells (FIGS. 3B and 3D).
The subject of assay [4] is cleaved PARP (c-PARP). In words: Western blot of cleaved PARP, HeLa cells. It counts as cell-based. The note with it: increasing concentrations of thymol.
Text: as §2
On the technique in general: A western blot detects proteins with antibodies after separation by electrophoresis.

The next assay relates to HeLa-derived tumors. Description: HeLa mouse xenograft, intra-tumor injection.
The next assay deals with T2, TRPA1 (Homo sapiens, UniProt O75762).
T2 construct: expressed in transfected cells; host or cells: CHO cells
T2 sequence (O75762 whole entry, species assumed): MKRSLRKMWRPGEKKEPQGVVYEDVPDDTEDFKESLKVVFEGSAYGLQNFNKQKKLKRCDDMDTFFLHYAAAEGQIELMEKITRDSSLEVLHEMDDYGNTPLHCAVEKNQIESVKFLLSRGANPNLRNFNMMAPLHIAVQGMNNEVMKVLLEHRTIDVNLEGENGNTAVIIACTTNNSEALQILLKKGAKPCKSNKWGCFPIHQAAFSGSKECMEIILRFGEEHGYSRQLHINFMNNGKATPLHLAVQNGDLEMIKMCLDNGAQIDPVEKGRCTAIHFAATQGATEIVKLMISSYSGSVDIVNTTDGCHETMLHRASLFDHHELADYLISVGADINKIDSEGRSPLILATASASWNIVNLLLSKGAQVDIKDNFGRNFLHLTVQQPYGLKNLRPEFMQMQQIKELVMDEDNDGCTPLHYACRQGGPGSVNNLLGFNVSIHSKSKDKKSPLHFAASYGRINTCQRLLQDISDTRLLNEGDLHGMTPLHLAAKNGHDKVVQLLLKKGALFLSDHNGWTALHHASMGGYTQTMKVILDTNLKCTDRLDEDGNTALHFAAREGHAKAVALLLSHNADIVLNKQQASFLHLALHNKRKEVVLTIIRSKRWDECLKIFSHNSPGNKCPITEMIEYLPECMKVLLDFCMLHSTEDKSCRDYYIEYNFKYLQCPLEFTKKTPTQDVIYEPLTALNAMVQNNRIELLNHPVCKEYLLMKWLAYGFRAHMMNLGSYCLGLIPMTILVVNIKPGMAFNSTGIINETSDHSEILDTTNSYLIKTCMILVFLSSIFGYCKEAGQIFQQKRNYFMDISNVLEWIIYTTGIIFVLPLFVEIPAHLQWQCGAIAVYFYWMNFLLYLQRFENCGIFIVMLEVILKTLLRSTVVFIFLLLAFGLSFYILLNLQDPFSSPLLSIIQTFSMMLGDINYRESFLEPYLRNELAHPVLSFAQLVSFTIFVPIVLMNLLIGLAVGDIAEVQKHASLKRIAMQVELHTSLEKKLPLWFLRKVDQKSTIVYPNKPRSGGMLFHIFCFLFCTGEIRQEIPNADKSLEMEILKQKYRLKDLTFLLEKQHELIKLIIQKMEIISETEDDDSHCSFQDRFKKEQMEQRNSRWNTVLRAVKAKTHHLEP
In words: Calcium imaging of CHO cells overexpressing TRPA1. In kind it is cell-based.
Text: as §1

Assay [5] deals with solid tumors (breast, lung, prostate, colon, cervical). Description: Anti-tumor effects against solid tumors (inventor's data). To be noted: all types of solid tumors (breast, lung, prostate, colon, cervical). From the text:
However head and neck cancer is 90% of squamous cell origin.

The next assay has as its system Ca127-derived tumors. In words: Ca127 mouse xenograft, intra-tumor injection.
The subject of assay [6] is cleaved PARP (c-PARP). Description: Western blot of cleaved PARP, Ca127 cells. The note with it: increasing concentrations of thymol. In kind it is cell-based.
Text: as §2

Another assay has as its system Ca127 (OSCC) cells. Description: Cell viability / proliferation (MTS) assay, Ca127 cells. It counts as cell-based. To be noted: treated 24 hours, p<0.001, read-out: IC50, anti-proliferative effect.

As for `CC(C)c1ccc(NC(=O)Cn2cnc3c2c(=O)n(C)c(=O)n3C)cc1` [HC030031], the “effect of inhibitor pre-treatment on calcium influx in response to thymol” value with Ca127 cells is on record as “nearly abolished all calcium influx”.

Take `O=C(O)c1ccc(S(=O)(=O)N(Cc2ccc(OC(F)(F)F)cc2)c2ncc(C(F)(F)F)cc2Cl)cc1` [RQ00203078]: in the assay on Ca127 cells, the “effect of inhibitor pre-treatment on calcium influx in response to thymol” value is recorded as “reduced calcium influx”.

`Cc1ccc(C(C)C)c(O)c1` [thymol, 2-isopropyl-5-methylphenol]: the calcium response entry in the assay with HeLa cells [1] was “did not respond”. The colony formation result with Ca127 (Ca127 (FIGS. 3A-D), one minute exposure, 10 days) was “abolished colony formation”; with Ca127 (Ca127, single two minute exposure, 4.3 mM, ten days) it was “abolished colony formation”; in the assay with HeLa cells [3] (HeLa (FIGS. 3A-D), one minute exposure, 10 days) it was “abolished colony formation”; in the assay with HeLa cells [3] (HeLa, single two minute exposure, 4.3 mM, ten days), “abolished colony formation”. Moreover, the “TRPV1 channel activation (calcium imaging)” value at TRPV1 is listed as “not TRPV1 channels”. Further, the calcium influx result in the assay on Ca127 cells (Ca127 cells expressing TRPA1, thymol 400 μM) was “small calcium influx”. Further, the IC50 (in assay [2]; in the assay on Ca127 (OSCC) cells) was 400 µM throughout. The “activation of cleaved PARP (apoptosis)” value with cleaved PARP (c-PARP) [4] and in the assay on cleaved PARP (c-PARP) [6] was “dose-dependent activation” throughout. In addition, the median tumor volume stood at 500 mm^3 in the assay with HeLa-derived tumors (Day 26 as printed, thymol 4.3 mM every other day for 22 days, control 900 mm^3) and 100 mm^3 in the assay with Ca127-derived tumors (Day 26, thymol 4.3 mM every other day, control 400 mm^3). Moreover, the “tumor volume compared to control” value with HeLa-derived tumors (by day 18, remained through day 22, 4.3 mM intra-tumor every other day, p<0.001) is on record as “significant reduction”; in the assay on Ca127-derived tumors (by day 16, 4.3 mM intra-tumor every other day, p<0.001), “significant reduction”. Moreover, the average tumor volume in the assay on HeLa-derived tumors (thymol 4.3 mM intra-tumor every other day for 22 days, control 900 mm^3) amounted to 500 mm^3; with Ca127-derived tumors (thymol 4.3 mM intra-tumor every other day for 26 days, control 400 mm^3) it was 90 mm^3. Further, the “TRPA1 channel activation (calcium imaging)” value at TRPA1 is listed as “activates TRPA1 channels”. Further, the anti-tumor effects result in assay [5] was “anti-tumor effects”.

The term IC50 denotes the midpoint of a concentration-inhibition curve.
